The experiment deals with IGF1R (Homo sapiens, UniProt P08069). The experiment is described as follows: Cellular IGF-1R assay: inhibition of IGF1R phosphorylation in transduced Hek293 cells, capture ELISA (MSD). The format is cell-based. Further details: Hek293 cells transduced with the corresponding receptors; expressed in transfected cells; host or cells: Hek293 (Hek293-IGF1R). The method, then: In this assay the activity of the compounds of the invention against Insulin-like growth factor I (IGF-1) induced autophosphorylation of the IGF-IR is determined. The assay is conducted as follows: Compound-mediated inhibition of IGF1R and INSR phosphorylation in Hek293 cells transduced with the corresponding receptors is assessed in a capture ELISA format using the MSD (Meso Scale Discovery) platform. Briefly, 30′000 cells washed and diluted in starvation medium (DMEM high glucose supplemented with 0.1% BSA) are seeded in 90 μL per well into 96-well plates pre-coated with poly-D-lysine (0.1 mg/mL in PBS/0). After 24 h incubation at 37° C. and 5% CO2, dose-response effects are determined with 3-fold serial compound dilutions, starting at 10 μM. The final vehicle concentration is 0.1% DMSO in all wells. Following pre-incubation with compounds for 1 h, receptor phosphorylation is triggered by a 10 min exposure to 1.0 ng/μL IGF for Hek293-IGF1R cells, and 5.0 ng/μL insulin for Hek293-InsR cells. Cell lysis is achieved by addition of 80 μL MSD lysis buffer per aspirated well, incubation on ice for 20 min, and a freeze-thaw cycle. Target phosphorylation is then assessed by transferring volumes corresponding to approx. 6 μg Hek293-IGF1R or 0.6 μg Hek293-InsR lysates to MSD assay plates pre-coated with total-IGF1R or total-InsR Abs, respectively. After incubation for 2 h at rt, wells are exposed for 1 hr to a rabbit monoclonal antibody (CST #3024, 1:1000) detecting pIGF1R(Tyr1135/1136) as well as pINSR(Tyr1150/1151). Immune complexes are detected by a SULFO-Tag™-coupled anti-rabbit IgG antibody in the presence of 150 μL MSD read-buffer. Light emission at 620 nm triggered by application of electric current is recorded on a MSD SectorImager 6000. Acquired raw data (mean Ru-ECL units) are processed in an Excel analysis template. The plate blank (MSD lysis buffer) is subtracted from all data points. The effect of a particular test compound concentration on receptor phosphorylation is expressed relative to the window defined by ligand-stimulated vs unstimulated control cells (set as 100%). IC50 values [nM] are determined using 4-parametric curve-fitting (XLfit software, V4.3.2). Alternatively, the assay can be conducted with a slightly different format; Compound-mediated inhibition of IGF-1R and InsR phosphorylation in HEK293 cells overexpressing the corresponding receptors were assessed by quantitative Western blot using an Odyssey infrared imager as readout.
IGF1R, sequence (P08069 31-1367): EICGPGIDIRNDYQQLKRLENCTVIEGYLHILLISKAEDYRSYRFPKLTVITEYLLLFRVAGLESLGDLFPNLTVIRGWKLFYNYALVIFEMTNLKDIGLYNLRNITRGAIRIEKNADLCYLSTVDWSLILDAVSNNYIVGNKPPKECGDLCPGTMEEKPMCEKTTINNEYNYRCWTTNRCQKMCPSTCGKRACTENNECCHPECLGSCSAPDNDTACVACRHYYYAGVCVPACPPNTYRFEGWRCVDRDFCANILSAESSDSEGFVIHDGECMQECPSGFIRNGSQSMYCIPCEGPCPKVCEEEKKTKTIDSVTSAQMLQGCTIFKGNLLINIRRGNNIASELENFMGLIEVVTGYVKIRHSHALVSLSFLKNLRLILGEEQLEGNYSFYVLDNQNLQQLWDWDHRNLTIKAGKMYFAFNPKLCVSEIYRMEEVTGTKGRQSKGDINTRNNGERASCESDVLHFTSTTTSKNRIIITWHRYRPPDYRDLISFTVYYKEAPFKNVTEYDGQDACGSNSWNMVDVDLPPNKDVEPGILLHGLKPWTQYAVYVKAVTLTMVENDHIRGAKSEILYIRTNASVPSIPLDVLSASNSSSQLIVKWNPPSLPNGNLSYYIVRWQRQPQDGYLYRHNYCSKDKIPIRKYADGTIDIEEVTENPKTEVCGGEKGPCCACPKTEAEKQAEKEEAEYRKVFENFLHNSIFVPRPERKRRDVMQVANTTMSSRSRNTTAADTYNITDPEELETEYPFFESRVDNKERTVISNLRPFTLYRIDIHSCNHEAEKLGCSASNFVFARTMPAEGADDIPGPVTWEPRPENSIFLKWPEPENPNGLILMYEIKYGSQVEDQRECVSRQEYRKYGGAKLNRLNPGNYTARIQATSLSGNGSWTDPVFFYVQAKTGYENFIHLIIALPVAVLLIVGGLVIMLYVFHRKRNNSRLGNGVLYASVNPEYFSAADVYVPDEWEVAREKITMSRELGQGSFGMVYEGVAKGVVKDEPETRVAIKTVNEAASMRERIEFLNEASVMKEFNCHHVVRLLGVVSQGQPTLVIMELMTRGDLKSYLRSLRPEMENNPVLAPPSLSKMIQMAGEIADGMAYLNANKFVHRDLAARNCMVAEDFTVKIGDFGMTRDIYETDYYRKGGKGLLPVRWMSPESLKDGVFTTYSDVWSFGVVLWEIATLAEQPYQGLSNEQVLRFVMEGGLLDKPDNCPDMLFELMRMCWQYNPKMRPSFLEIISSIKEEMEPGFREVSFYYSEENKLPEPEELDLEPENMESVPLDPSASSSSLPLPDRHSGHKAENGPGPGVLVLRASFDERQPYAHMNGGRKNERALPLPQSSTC
Compound-mediated inhibition of IGF1R and INSR phosphorylation in Hek293 cells transduced with the corresponding receptors is assessed in a capture ELISA format using the MSD (Meso Scale Discovery) platform. Briefly, 30′000 cells washed and diluted in starvation medium (DMEM high glucose supplemented with 0.1% BSA) are seeded in 90 μL per well into 96-well plates pre-coated with poly-D-lysine (0.1 mg/mL in PBS/O). After 24 h incubation at 37° C. and 5% CO2, dose-response effects are determined with 3-fold serial compound dilutions, starting at 10 μM. The final vehicle concentration is 0.1% DMSO in all wells. Following pre-incubation with compounds for 1 h, receptor phosphorylation is triggered by a 10 min exposure to 1.0 ng/μL IGF for Hek293-IGF1R cells, and 5.0 ng/μL insulin for Hek293-InsR cells. Cell lysis is achieved by addition of 80 μL MSD lysis buffer per aspirated well, incubation on ice for 20 min, and a freeze-thaw cycle. Target phosphorylation is then assessed by transferring volumes corresponding to approx. 6 μg Hek293-IGF1R or 0.6 μg Hek293-lnsR lysates to MSD assay plates pre-coated with total-IGF1R or total-lnsR Abs, respectively. After incubation for 2 h at rt, wells are exposed for 1 hr to a rabbit monoclonal antibody (CST #3024, 1:1000) detecting pIGF1R(Tyr1135/1136) as well as pINSR(Tyr1150/1151). Immune complexes are detected by a SULFO-Tag™-coupled anti-rabbit IgG antibody in the presence of 150 μL MSD read-buffer. […]
(In an ELISA, binding on a coated surface is turned into a signal by an enzyme label.)

The IC50 is the concentration that gives 50% inhibition.

`Nc1ncnc2c1c(-c1ccc3c(c1)OC(c1ccccn1)CC3)cn2[C@H]1C[C@@H](CN2CCS(=O)(=O)CC2)C1` (mixture of isomers) [Example 54, (±)-7-(cis-3-(1,1-dioxo-thiomorpholin-4-ylmethyl)cyclobutyl)-5-(2-(pyridin-2-yl)chroman-7-yl)-7H-pyrrolo[2,3-d]pyrimidin-4-amine] displayed a 50% inhibitory concentration (IC50) of 45 nM.
In the case of `CC(=O)N[C@H]1CC[C@@H](n2cc(-c3ccc4c(c3)OC(c3ccccc3)CC4)c3c(N)ncnc32)CC1` (mixture of isomers) [Example 55, (±)-N-(cis-4-(4-amino-5-(2-phenylchroman-7-yl)-7H-pyrrolo[2,3-d]pyrimidin-7-yl)cyclohexyl)acetamide] it was 108 nM; in that of `Nc1ncnc2c1c(-c1ccc3c(c1)OC(c1ccccn1)CC3)cn2[C@H]1C[C@@](O)(CO)C1` (mixture of isomers) [Example 56, (±)-(E)-3-(4-amino-5-(2-(pyridin-2-yl)chroman-7-yl)-7H-pyrrolo[2,3-d]pyrimidin-7-yl)-1-(hydroxymethyl)cyclobutanol], 548 nM.
`Nc1ncnc2c1c(-c1ccc3c(c1)OC(c1ccccn1)CC3)cn2[C@H]1C[C@@H](CN2CC[S+]([O-])CC2)C1` (mixture of isomers) [Example 63, (±)-7-(cis-3-(1-oxo-thiomorpholin-4-ylmethyl)cyclobutyl)-5-(2-(pyridin-2-yl)chroman-7-yl)-7H-pyrrolo[2,3-d]pyrimidin-4-amine] displayed an IC50 of 109 nM.
For `Nc1ncnc2c1c(-c1ccc3c(c1)OC(C1CCCO1)CC3)cn2[C@H]1CC[C@@H](N2CCS(=O)(=O)CC2)CC1` (mixture of isomers) [Example 64, (±)-7-[cis-4-(1,1-dioxo-1λ6-thiomorpholin-4-yl)-cyclohexyl]-5-[2-trans-(tetrahydro-furan-2-yl)chroman-7-yl]-7H-pyrrolo[2,3-d]pyrimidin-4-ylamine], 59 nM corresponded to half-maximal inhibition (IC50).
As for `Nc1ncnc2c1c(-c1ccc3c(c1)OC(C1CCCO1)CC3)cn2[C@H]1CC[C@@H](N2CCS(=O)(=O)CC2)CC1` (mixture of isomers) [Example 65, (±)-7-[cis-4-(1,1-dioxo-1λ6-thiomorpholin-4-yl)-cyclohexyl]-5-[2-cis-(tetrahydro-furan-2-yl)chroman-7-yl]-7H-pyrrolo[2,3-d]pyrimidin-4-ylamine], half-maximal inhibition (IC50) required 39 nM.
In the case of `Nc1nccn2c1c(-c1ccc3c(c1)O[C@@H](c1ccccc1)C=C3)nc2[C@H]1C[C@@H](CO)C1` (relative stereo) [Example 22, (R,S)-{cis-3-[8-Amino-1-(2-phenyl-2H-chromen-7-yl)-imidazo[1,5-a]pyrazin-3-yl]-cyclobutyl}-methanol] it was 179 nM; in that of `Nc1nccn2c1c(-c1ccc3c(c1)OC(c1ccccc1)CC3)nc2[C@H]1C[C@@H](Cn2ccnc2CO)C1` (relative stereo) [Example 39, (1-{cis-3-[8-Amino-1-(2-phenyl-chroman-7-yl)-imidazo[1,5-a]pyrazin-3-yl]-cyclobutylmethyl}-1H-imidazol-2-yl)-methanol], 218 nM.
With `Nc1ncnc2c1c(-c1ccc3c(c1)OC(c1ccccc1)CC3)cn2[C@H]1C[C@@H](O)C1` (relative stereo) [Example 48, cis-3-[4-Amino-5-(2-phenyl-chroman-7-yl)-pyrrolo[2,3-d]pyrimidin-7-yl]-cyclobutanol] the figure was 88 nM; with `Nc1ncnc2c1c(-c1ccc3c(c1)OC(c1ccccc1)CC3)cn2[C@H]1C[C@H](O)C1` (relative stereo) [Example 49, trans-3-[4-Amino-5-(2-phenyl-chroman-7-yl)-pyrrolo[2,3-d]pyrimidin-7-yl]-cyclobutanol], 96 nM.
In the case of `CCOCC1CCc2ccc(-c3cn([C@H]4C[C@@H](CN5CC[S+]([O-])CC5)C4)c4ncnc(N)c34)cc2O1` (relative stereo) [Example 50, 5-(2-Ethoxymethyl-chroman-7-yl)-7-[cis-3-(1-oxo-thiomorpholin-4-ylmethyl)-cyclobutyl]-7H-pyrrolo[2,3-d]pyrimidin-4-ylamine] it was 36 nM.
Compound `Nc1ncnc2c1c(-c1ccc3c(c1)OC(c1ccccc1)CC3)cn2C1CC(O)(CO)C1` (single isomer, unassigned) [Example 27] displayed an IC50 of 31 to 112 nM.
In turn, `Nc1ncnc2c1c(-c1ccc3c(c1)OC(C1CCCO1)CC3)cn2C1CC(CN2CCS(=O)(=O)CC2)C1` (single isomer, unassigned) [Example 30, (I)-7-[cis-3-(1,1-Dioxo-1-thiomorpholin-4-ylmethyl)-cyclobutyl]-5-[2-(tetrahydro-furan-2-yl)-chroman-7-yl]-7H-pyrrolo[2,3-d]pyrimidin-4-ylamine] registered an IC50 of 4 to 5 nM.
In the case of `Nc1ncnc2c1c(-c1ccc3c(c1)OC(C1CCCO1)CC3)cn2C1CC(CN2CCS(=O)(=O)CC2)C1` (single isomer, unassigned) [Example 31, (u)-7-[3-(1,1-Dioxo-1-thiomorpholin-4-ylmethyl)-cyclobutyl]-5-[2-(tetrahydro-furan-2-yl)-chroman-7-yl]-7H-pyrrolo[2,3-d]pyrimidin-4-ylamine] it was 7 nM; in that of `Nc1ncnc2c1c(-c1ccc3c(c1)OC(C1CCCO1)CC3)cn2C1CC(O)(CO)C1` (single isomer, unassigned) [Example 32, (I)-(E)-3-{4-Amino-5-[2-(tetrahydro-furan-2-yl)-chroman-7-yl]-pyrrolo[2,3-d]pyrimidin-7-yl}-1-hydroxymethyl-cyclobutanol], 183 nM.
In turn, `Nc1ncnc2c1c(-c1ccc3c(c1)OC(C1CCCO1)CC3)cn2C1CC(O)(CO)C1` (single isomer, unassigned) [Example 33, (u)-(E)-3-{4-amino-5-[2-(tetrahydro-furan-2-yl)-chroman-7-yl]-pyrrolo[2,3-d]pyrimidin-7-yl}-1-hydroxymethyl-cyclobutanol] showed an IC50 of 395 nM.
With `Nc1ncnc2c1c(-c1ccc3c(c1)OC(C1CCCO1)CC3)cn2C1CC(O)(CO)C1` (single isomer, unassigned) [Example 35] the figure was 55 nM; with `Nc1ncnc2c1c(-c1ccc3c(c1)OC(c1ccccc1)CC3)cn2C1CC(O)(CO)C1` (single isomer, unassigned) [Example 41, (Z)-3-K-Amino-5-(2-phenyl-chroman-7-yl)-pyrrolo[2,3-d]pyrimidin-7-yl]-1-hydroxymethyl-cyclobutanol], 44 to 143 nM.
In the case of `Nc1ncnc2c1c(-c1ccc3c(c1)OC(c1ccccc1)CC3)cn2C1CC(O)(CO)C1` (single isomer, unassigned) [Example 42, (Z)-3-K-Amino-5-(2-phenyl-chroman-7-yl)-pyrrolo[2,3-d]pyrimidin-7-yl]-1-hydroxymethyl-cyclobutanol] it was 272 to 338 nM.
The compound `Nc1ncnc2c1c(-c1ccc3c(c1)O[C@H](c1ccccc1)CC3)cn2[C@H]1C[C@@H](CO)C1` [Example 11, {cis-3-[4-Amino-5-((S)-2-phenyl-chroman-7-yl)-pyrrolo[2,3-d]pyrimidin-7-yl]-cyclobutyl}-methanol] yielded an IC50 of 19 nM.
`Nc1ncnc2c1c(-c1ccc3c(c1)O[C@@H](c1ccccc1)CC3)cn2[C@H]1C[C@@H](CO)C1` [Example 12, {cis-3-[4-Amino-5-((R)-2-phenyl-chroman-7-yl)-pyrrolo[2,3-d]pyrimidin-7-yl]-cyclobutyl}-methanol] displayed an IC50 of 55 nM.

The values are drawn from patent US20120289501A1, “Benzene-fused 6-membered oxygen-containing heterocyclic derivatives of bicyclic heteroaryls” (NOVARTIS AG, priority 2009, published 2012).
